Reference: patent US11840686B2, “Modulation of prekallikrein (PKK) expression” (Ionis Pharmaceuticals, Inc., priority 2013, dated 2023)
pIC50: −log10 of the molar value. Strand notation (5' to 3'): a small letter for the sugar, then the base; units joined by * are phosphorothioate-linked, units joined directly phosphodiester-linked; [ ] holds rarer units or linkages, { } end groups; capitals alone tell only the bases. e = 2'-O-(2-methoxyethyl) (MOE); k = constrained ethyl (cEt); [5mC] = 5-methylcytosine; d = 2'-deoxy (DNA)

How the values were obtained:
human PKK mRNA [1] = assay: Dose-dependent antisense inhibition of human PKK in HepaRG cells, 0.11-3.00 uM (Example 6); format: cell-based; details: for pIC50: 0.11-3.00 μM; for percent inhibition of PKK mRNA, 0.11 μM / percent inhibition of PKK mRNA, 0.33 μM / percent inhibition of PKK mRNA, 1.00 μM / percent inhibition of PKK mRNA, 3.00 μM: electroporation, approx. 16 hours, relative to untreated control cells
Procedure, shortened: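 HepaRG cells were electroporated with antisense oligonucleotide at 0.11, 0.33, 1.00 or 3.00 μM. After about 16 h, PKK mRNA was quantified by qRT-PCR with primer probe set RTS3454 and normalized to total RNA by RIBOGREEN. IC50 was derived from the dose series.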

human PKK mRNA [2] = assay: Antisense inhibition of human PKK mRNA in HepaRG cells, 1,000 nM, MOE/deoxy/cEt oligonucleotides (Example 3); format: cell-based
Procedure, shortened: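 HepaRG cells at 20,000 per well electroporated with 1,000 nM 16-mer MOE/cEt/deoxy gapmers (phosphorothioate, 5-methylcytosine). After about 24 h, PKK mRNA measured by qRT-PCR with primer probe set RTS3454, normalized to RIBOGREEN total RNA. Reported as percent inhibition versus untreated cells.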

[3] = HepaRG cells, electroporation with 1,000 nM antisense oligonucleotide, approx. 24 hours, PKK mRNA by RT-PCR (RTS3454), relative to untreated control cells, Table 25 experiment
[4] = HepaRG cells, electroporation with 1,000 nM antisense oligonucleotide, approximately 24 hours, primer probe set RTS3454, relative to untreated control cells, experiment of Table 24

548338 (antisense eA*eT*kG*dA*dA*dA*d[5mC]*dT*dG*dT*dG*dG*d[5mC]*kT*k[5mC]*eG) [compound 548338]
pIC50 (human PKK mRNA [1]): 6.70
percent inhibition of PKK mRNA, 0.11 μM (human PKK mRNA [1]): 41%
percent inhibition of PKK mRNA, 0.33 μM (human PKK mRNA [1]): 58%
percent inhibition of PKK mRNA, 1.00 μM (human PKK mRNA [1]): 79%
percent inhibition of PKK mRNA, 3.00 μM (human PKK mRNA [1]): 95%
% inhibition (human PKK mRNA [2]; Table 27, HepaRG cells, 1,000 nM antisense oligonucleotide, human PKK mRNA): 80%

547807 (eG*e[5mC]*kA*dG*dT*dA*dT*dT*dG*dG*dG*d[5mC]*dA*kT*kT*eT; antisense) [compound 547807]
pIC50 (human PKK mRNA [1]): 6.40
percent inhibition of PKK mRNA, 0.11 μM (human PKK mRNA [1]): 26%
percent inhibition of PKK mRNA, 0.33 μM (human PKK mRNA [1]): 71%
percent inhibition of PKK mRNA, 1.00 μM (human PKK mRNA [1]): 61%
percent inhibition of PKK mRNA, 3.00 μM (human PKK mRNA [1]): 94%
% inhibition (human PKK mRNA [2]; Table 21 experiment, HepaRG cells, electroporation with 1,000 nM antisense oligonucleotide, approx. 24 hours, PKK mRNA by RT-PCR (RTS3454), relative to untreated control cells): 75%

547947 (eG*eG*kA*dA*d[5mC]*dT*dT*dG*dG*dT*dG*dT*dG*k[5mC]*k[5mC]*eA; antisense) [compound 547947]
pIC50 (human PKK mRNA [1]): 6.52
percent inhibition of PKK mRNA, 0.11 μM (human PKK mRNA [1]): 24%
percent inhibition of PKK mRNA, 0.33 μM (human PKK mRNA [1]): 58%
percent inhibition of PKK mRNA, 1.00 μM (human PKK mRNA [1]): 81%
percent inhibition of PKK mRNA, 3.00 μM (human PKK mRNA [1]): 93%
% inhibition (human PKK mRNA [2]; HepaRG cells, electroporation with 1,000 nM antisense oligonucleotide, approximately 24 hours, primer probe set RTS3454, relative to untreated control cells, experiment of Table 23): 80%

548174 (eT*e[5mC]*kT*d[5mC]*dA*dG*dT*dT*dG*d[5mC]*dG*dA*d[5mC]*k[5mC]*kT*e[5mC]; antisense) [compound 548174]
pIC50 (human PKK mRNA [1]): 5.70
percent inhibition of PKK mRNA, 0.11 μM (human PKK mRNA [1]): 20%
percent inhibition of PKK mRNA, 0.33 μM (human PKK mRNA [1]): 18%
percent inhibition of PKK mRNA, 1.00 μM (human PKK mRNA [1]): 29%
percent inhibition of PKK mRNA, 3.00 μM (human PKK mRNA [1]): 62%
% inhibition (human PKK mRNA [2]; [3]): 68%

548005 (eA*eG*kA*dG*dT*dA*dA*d[5mC]*d[5mC]*dA*dG*dA*dG*k[5mC]*kT*e[5mC]; antisense) [compound 548005]
pIC50 (human PKK mRNA [1]): 6.40
percent inhibition of PKK mRNA, 0.11 μM (human PKK mRNA [1]): 53%
percent inhibition of PKK mRNA, 0.33 μM (human PKK mRNA [1]): 49%
percent inhibition of PKK mRNA, 1.00 μM (human PKK mRNA [1]): 71%
percent inhibition of PKK mRNA, 3.00 μM (human PKK mRNA [1]): 95%
% inhibition (human PKK mRNA [2]; [4]): 77%

548217 (e[5mC]*eT*kG*dT*dG*d[5mC]*dA*dT*dA*dG*dA*d[5mC]*d[5mC]*k[5mC]*k[5mC]*eA; antisense) [compound 548217]
pIC50 (human PKK mRNA [1]): 6.05
percent inhibition of PKK mRNA, 0.11 μM (human PKK mRNA [1]): 22%
percent inhibition of PKK mRNA, 0.33 μM (human PKK mRNA [1]): 24%
percent inhibition of PKK mRNA, 1.00 μM (human PKK mRNA [1]): 54%
percent inhibition of PKK mRNA, 3.00 μM (human PKK mRNA [1]): 71%
% inhibition (human PKK mRNA [2]; [3]): 69%

548410 (antisense eA*eG*kT*dA*dT*d[5mC]*dA*d[5mC]*dT*dG*dT*dA*d[5mC]*kT*kA*eG) [compound 548410]
pIC50 (human PKK mRNA [1]): 6.70
percent inhibition of PKK mRNA, 0.11 μM (human PKK mRNA [1]): 31%
percent inhibition of PKK mRNA, 0.33 μM (human PKK mRNA [1]): 58%
percent inhibition of PKK mRNA, 1.00 μM (human PKK mRNA [1]): 85%
percent inhibition of PKK mRNA, 3.00 μM (human PKK mRNA [1]): 82%
% inhibition (human PKK mRNA [2]; Table 30, human PKK mRNA, HepaRG cells, 1,000 nM antisense oligonucleotide): 85%

548043 (eA*eT*kT*dT*dG*dT*dG*dA*dG*dA*dA*dA*dG*kG*kT*eG; antisense) [compound 548043]
pIC50 (human PKK mRNA [1]): 6.52
percent inhibition of PKK mRNA, 0.11 μM (human PKK mRNA [1]): 14%
percent inhibition of PKK mRNA, 0.33 μM (human PKK mRNA [1]): 60%
percent inhibition of PKK mRNA, 1.00 μM (human PKK mRNA [1]): 90%
percent inhibition of PKK mRNA, 3.00 μM (human PKK mRNA [1]): 92%
% inhibition (human PKK mRNA [2]; [4]): 76%

548201 (eT*eG*kT*dT*d[5mC]*dT*dA*dA*dT*dG*dT*dG*dG*k[5mC]*kA*e[5mC]; antisense) [compound 548201]
pIC50 (human PKK mRNA [1]): 6.10
percent inhibition of PKK mRNA, 0.11 μM (human PKK mRNA [1]): 0%
percent inhibition of PKK mRNA, 0.33 μM (human PKK mRNA [1]): 7%
percent inhibition of PKK mRNA, 1.00 μM (human PKK mRNA [1]): 70%
percent inhibition of PKK mRNA, 3.00 μM (human PKK mRNA [1]): 85%
% inhibition (human PKK mRNA [2]; [3]): 67%

547877 (antisense eA*eA*k[5mC]*dA*d[5mC]*dT*dG*d[5mC]*dT*dA*dA*d[5mC]*d[5mC]*kT*kT*eA) [compound 547877]
pIC50 (human PKK mRNA [1]): 6.70
percent inhibition of PKK mRNA, 0.11 μM (human PKK mRNA [1]): 29%
percent inhibition of PKK mRNA, 0.33 μM (human PKK mRNA [1]): 66%
percent inhibition of PKK mRNA, 1.00 μM (human PKK mRNA [1]): 83%
% inhibition (human PKK mRNA [2]; Table 20, HepaRG cells, electroporation with 1,000 nM antisense oligonucleotide, approximately 24 hours, PKK mRNA by RT-PCR (RTS3454), relative to untreated control cells): 81%
% inhibition (human PKK mRNA [2]; Table 22 experiment, HepaRG cells, electroporation with 1,000 nM antisense oligonucleotide, approx. 24 hours, PKK mRNA by RT-PCR (RTS3454), relative to untreated control cells): 93%

548197 (eT*eG*k[5mC]*dT*dT*dG*dG*d[5mC]*dT*dT*d[5mC]*dA*dA*kT*kA*eT; antisense) [compound 548197]
pIC50 (human PKK mRNA [1]): 6.10
percent inhibition of PKK mRNA, 0.11 μM (human PKK mRNA [1]): 33%
percent inhibition of PKK mRNA, 0.33 μM (human PKK mRNA [1]): 37%
percent inhibition of PKK mRNA, 1.00 μM (human PKK mRNA [1]): 51%
percent inhibition of PKK mRNA, 3.00 μM (human PKK mRNA [1]): 75%
% inhibition (human PKK mRNA [2]; [3]): 68%
